Test results as given in PubChem BioAssay (NCI).
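Dose response: 5 concentrations. Exposure: 48 h. Format: 96-well plates. Endpoint: linear interpolation; highest concentration if not reached. GI50 marks 50% less growth. At the TGI there is no net growth.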

Legend:
Assay in all cases: NCI-60 cell line screen, 48 h
[1] = system: 786-0 renal
[2] = system: A498 renal
[3] = system: A549 NSCLC
[4] = system: ACHN renal
[5] = system: BT-549 breast
[6] = system: CAKI-1 renal
[7] = system: CCRF-CEM leukemia
[8] = system: COLO 205 colon
[9] = system: DU-145 prostate
[10] = system: EKVX NSCLC
[11] = system: HCC-2998 colon
[12] = system: HCT-116 colon
[13] = system: HCT-15 colon
[14] = system: HL-60(TB) leukemia
[15] = system: HOP-62 NSCLC
[16] = system: HOP-92 NSCLC
[17] = system: HS 578T breast
[18] = system: HT29 colon
[19] = system: IGROV1 ovarian
[20] = system: K-562 leukemia
[21] = system: KM12 colon
[22] = system: LOX IMVI melanoma
[23] = system: M14 melanoma
[24] = system: MALME-3M melanoma
[25] = system: MCF7 breast
[26] = system: MDA-MB-231 breast
[27] = system: MDA-MB-435
[28] = system: MOLT-4 leukemia
[29] = system: NCI-H226 lung
[30] = system: NCI-H23 lung
[31] = system: NCI-H460 lung
[32] = system: NCI-H522 lung
[33] = system: NCI/ADR-RES ovarian
[34] = system: OVCAR-3 ovarian
[35] = system: OVCAR-4 ovarian
[36] = system: OVCAR-5 ovarian
[37] = system: OVCAR-8 ovarian
[38] = system: PC-3 prostate
[39] = system: RPMI-8226 leukemia
[40] = system: RXF 393 renal
[41] = system: SF-268 CNS
[42] = system: SF-295 CNS
[43] = system: SF-539 CNS
[44] = system: SK-MEL-2 melanoma
[45] = system: SK-MEL-28 melanoma
[46] = system: SK-MEL-5 melanoma
[47] = system: SK-OV-3 ovarian
[48] = system: SN12C renal
[49] = system: SNB-19 CNS
[50] = system: SNB-75 CNS
[51] = system: SR leukemia
[52] = system: SW-620 colon
[53] = system: T-47D breast
[54] = system: TK-10 renal
[55] = system: U251 CNS
[56] = system: UACC-257 melanoma
[57] = system: UACC-62 melanoma
[58] = system: UO-31 renal

For `CCSc1ccc2c(c1)N(CCCN1CCN(C)CC1)c1ccccc1S2`, the GI50 [1] was 2610 nM, the TGI [1] was 7600 nM and the GI50 [2] was 1830 nM. The TGI [2] was 10200 nM, the GI50 [3] was 3210 nM and the TGI [3] was 10500 nM. For the same molecule, the GI50 [4] was 2490 nM, the TGI [4] was 6830 nM and the GI50 [5] was 4750 nM. The TGI [5] was 18900 nM, the GI50 [6] was 1750 nM and the TGI [6] was 4190 nM. For the same molecule, the GI50 [7] was 2560 nM, the TGI [7] was 7100 nM and the GI50 [8] was 1760 nM. The TGI [8] was 3370 nM, the GI50 [9] was 3820 nM and the TGI [9] was 14200 nM. It also gave a GI50 [10] of 6040 nM, a TGI [10] of 22600 nM and a GI50 [11] of 1700 nM. It also gave a TGI [11] of 3280 nM, a GI50 [12] of 2040 nM and a TGI [12] of 4400 nM. The GI50 [13] was 2060 nM, the TGI [13] was 4980 nM and the GI50 [14] was 1830 nM. For the same molecule, the TGI [14] was 4610 nM, the GI50 [15] was 2840 nM and the TGI [15] was 8150 nM. For the same molecule, the GI50 [16] was 1850 nM, the TGI [16] was 7060 nM and the GI50 [17] was 2000 nM. It also gave a TGI [17] of 5560 nM, a GI50 [18] of 1810 nM and a TGI [18] of 3440 nM. For the same molecule, the GI50 [19] was 2190 nM, the TGI [19] was 5410 nM and the GI50 [20] was 2390 nM. It also gave a TGI [20] greater than 100000 nM, a GI50 [21] of 1870 nM and a TGI [21] of 3560 nM. For the same molecule, the GI50 [22] was 1670 nM, the TGI [22] was 3160 nM and the GI50 [23] was 1880 nM. The TGI [23] was 3670 nM, the GI50 [24] was 1580 nM and the TGI [24] was 3350 nM. It also gave a GI50 [25] of 1790 nM, a TGI [25] of 3430 nM and a GI50 [26] of 2000 nM. For the same molecule, the TGI [26] was 4950 nM, the GI50 [27] was 1720 nM and the TGI [27] was 3470 nM. The GI50 [28] was 2640 nM, the TGI [28] was 6530 nM and the GI50 [29] was 7170 nM. It also gave a TGI [29] of 27500 nM, a GI50 [30] of 6580 nM and a TGI [30] of 21300 nM. For the same molecule, the GI50 [31] was 1870 nM, the TGI [31] was 3530 nM and the GI50 [32] was 1700 nM. The TGI [32] was 3500 nM, the GI50 [33] was 3680 nM and the TGI [33] was 16800 nM. For the same molecule, the GI50 [34] was 2480 nM, the TGI [34] was 7120 nM and the GI50 [35] was 3630 nM. It also gave a TGI [35] of 12300 nM, a GI50 [36] of 2190 nM and a TGI [36] of 6440 nM. For the same molecule, the GI50 [37] was 4390 nM, the TGI [37] was 10900 nM and the GI50 [38] was 2740 nM. It also gave a TGI [38] of 9640 nM, a GI50 [39] of 2460 nM and a TGI [39] of 6960 nM. The GI50 [40] was 2820 nM, the TGI [40] was 8880 nM and the GI50 [41] was 3960 nM. For the same molecule, the TGI [41] was 16900 nM, the GI50 [42] was 2200 nM and the TGI [42] was 5970 nM. For the same molecule, the GI50 [43] was 1830 nM, the TGI [43] was 3760 nM and the GI50 [44] was 3250 nM. It also gave a TGI [44] of 8490 nM, a GI50 [45] of 1730 nM and a TGI [45] of 3270 nM. It also gave a GI50 [46] of 1730 nM, a TGI [46] of 3160 nM and a GI50 [47] of 10400 nM. It also gave a TGI [47] of 24000 nM, a GI50 [48] of 4540 nM and a TGI [48] of 18400 nM. For the same molecule, the GI50 [49] was 3160 nM, the TGI [49] was 12000 nM and the GI50 [50] was 1790 nM. It also gave a TGI [50] of 5500 nM, a GI50 [51] of 2710 nM and a TGI [51] of 8650 nM. It also gave a GI50 [52] of 1880 nM, a TGI [52] of 3650 nM and a GI50 [53] of 2170 nM. The TGI [53] was 5790 nM, the GI50 [54] was 1730 nM and the TGI [54] was 3270 nM. It also gave a GI50 [55] of 2050 nM, a TGI [55] of 4640 nM and a GI50 [56] of 1810 nM. The TGI [56] was 3480 nM, the GI50 [57] was 1670 nM and the TGI [57] was 3340 nM. It also gave a GI50 [58] of 2100 nM and a TGI [58] of 10100 nM.
With `Cc1ccc(NS(=O)(=O)c2ccc(-c3cnc(C4CC4)o3)cc2)cc1C` the GI50 [1] was 544 nM, the TGI [1] was greater than 37800 nM and the GI50 [2] was 228 nM. For the same molecule, the TGI [2] was 932 nM, the GI50 [3] was 751 nM and the TGI [3] was greater than 49200 nM. For the same molecule, the GI50 [4] was 673 nM, the TGI [4] was greater than 33900 nM and the GI50 [5] was 715 nM. The TGI [5] was 13700 nM, the GI50 [6] was 385 nM and the TGI [6] was greater than 42100 nM. The GI50 [7] was 433 nM, the TGI [7] was greater than 59300 nM and the GI50 [8] was 464 nM. For the same molecule, the TGI [8] was 1840 nM, the GI50 [9] was 972 nM and the TGI [9] was greater than 68700 nM. It also gave a GI50 [10] of 713 nM, a TGI [10] greater than 45400 nM and a GI50 [11] of 1570 nM. The TGI [11] was greater than 32800 nM, the GI50 [12] was 394 nM and the TGI [12] was 10800 nM. For the same molecule, the GI50 [13] was 302 nM, the TGI [13] was greater than 33200 nM and the GI50 [14] was 259 nM. It also gave a TGI [14] of 1460 nM, a GI50 [15] of 557 nM and a TGI [15] greater than 40100 nM. It also gave a GI50 [16] of 308 nM, a TGI [16] of 3350 nM and a GI50 [17] of 450 nM. It also gave a TGI [17] of 5770 nM, a GI50 [18] of 330 nM and a TGI [18] of 1570 nM. For the same molecule, the GI50 [19] was 593 nM, the TGI [19] was greater than 43300 nM and the GI50 [20] was less than 37.3 nM. For the same molecule, the TGI [20] was greater than 68400 nM, the GI50 [21] was 279 nM and the TGI [21] was greater than 32600 nM. It also gave a GI50 [22] of 524 nM, a TGI [22] greater than 32300 nM and a GI50 [23] of 375 nM. The TGI [23] was 11800 nM, the GI50 [24] was 683 nM and the TGI [24] was 18100 nM. It also gave a GI50 [25] of 279 nM, a GI50 [26] of 797 nM and a TGI [26] of 15900 nM. The GI50 [27] was less than 25.2 nM, the TGI [27] was 2460 nM and the GI50 [28] was 583 nM. The TGI [28] was greater than 52700 nM, the GI50 [29] was 843 nM and the TGI [29] was greater than 28400 nM. It also gave a GI50 [30] of 1130 nM, a TGI [30] greater than 57800 nM and a GI50 [31] of 481 nM. For the same molecule, the TGI [31] was 11500 nM, the GI50 [32] was 267 nM and the TGI [32] was 3280 nM. The GI50 [33] was 407 nM, the TGI [33] was greater than 41800 nM and the GI50 [34] was 342 nM. For the same molecule, the TGI [34] was 12500 nM, the GI50 [35] was 912 nM and the TGI [35] was 10400 nM. The GI50 [36] was 1310 nM, the TGI [36] was greater than 38800 nM and the GI50 [37] was 916 nM. For the same molecule, the TGI [37] was greater than 55900 nM, the GI50 [38] was 432 nM and the TGI [38] was greater than 27600 nM. For the same molecule, the GI50 [39] was 450 nM, the TGI [39] was greater than 25400 nM and the GI50 [40] was 338 nM. It also gave a TGI [40] of 3890 nM, a GI50 [41] of 1110 nM and a TGI [41] greater than 36800 nM. The GI50 [42] was 407 nM, the TGI [42] was 3470 nM and the GI50 [43] was 366 nM. It also gave a TGI [43] of 1770 nM, a GI50 [44] of 797 nM and a TGI [44] of 14400 nM. The GI50 [45] was 1260 nM, the TGI [45] was greater than 45400 nM and the GI50 [46] was 390 nM. The TGI [46] was 1700 nM, the GI50 [47] was 917 nM and the TGI [47] was greater than 29100 nM. The GI50 [48] was 711 nM, the TGI [48] was greater than 34000 nM and the GI50 [49] was 522 nM. For the same molecule, the TGI [49] was greater than 63800 nM, the GI50 [50] was 184 nM and the TGI [50] was 823 nM. It also gave a GI50 [51] of 476 nM, a TGI [51] greater than 100000 nM and a GI50 [52] of 341 nM. The TGI [52] was greater than 72200 nM, the GI50 [53] was 373 nM and the TGI [53] was 16700 nM. It also gave a GI50 [54] of 1440 nM, a TGI [54] of 8030 nM and a GI50 [55] of 458 nM. The TGI [55] was greater than 33900 nM, the GI50 [56] was 836 nM and the TGI [56] was 9550 nM. The GI50 [57] was 383 nM, the TGI [57] was greater than 38000 nM and the GI50 [58] was 839 nM. The TGI [58] was 7740 nM.
